Patent EP0185346A2, “Imidazo derivatives, their preparation and medicaments containing these compounds” (Dr. Karl Thomae GmbH, priority 1984, dated 1986)

Each molecule was assayed on despinalisierten Meerschweinchen (assay: Positive inotropic effect in despinalised guinea pigs (LV-dp/dtmax, i.v. injection)). Conditions: Cavia porcellus, iv; 1 mg/kg i.v.; mean values, each substance tested in 3 despinalised guinea pigs; read-out: Zunahme in LV-dp/dtmax.
Format: in vivo
From the text: Bestimmung der positiv inotropen Wirkung an despinalisierten Meerschweinchen
Die Untersuchungen wurden an despinalisierten Meerschweinchen durchgeführt. Die Tiere wurden mit 50 % 02 + 50 % N2 beatmet. Der arterielle Blutdruck wurde in der rechten Arteria Carotis mit einem Bell and Howell Druckwandler (4-327-1) gemessen. Für die Erfassung der positiv inotropen Wirkung wurde mit einem Kathetertipmanometer (Millar PR-249) der Druck in dem linken Ventrikel (LV) gemessen. Mittels eines Differenzierers wurde LV-dp/dtmax gewonnen. Die zu untersuchenden Substanzen wurden in eine Vena jugularis injiziert. Als Lösungsmittel diente 0,9 % NaCl+Polydiol 200 (1:1).
Jede Substanz wurde an 3 Meerschweinchen überprüft. Die Dosen waren 0,1 - 3 mg/kg i.v.. Die nachfolgende Tabelle enthält die Mittelwerte bei 1 mg/kg i.v..
In the case of `COc1cc(C(=O)N(C)C)ccc1-c1cn2ccc(=O)[nH]c2n1` [Substanz H, 2-(2-Methoxy-4-dimethylaminocarbonyl-phenyl)-8H-imidazo-[l,2-a]pyrimidin-7-on], the change in vivo at 1 mg/kg is reported as 33%. `COc1cc(OS(C)(=O)=O)ccc1-c1cn2cc[nH]c(=O)c2n1` [Substanz I, 2-(2-Methoxy-4-methylsulfonyloxy-phenyl)-7H-imidazo-[1,2-a]pyrazin-8-on] showed a change in vivo at 1 mg/kg of 98%. Work on `COc1ccc(-c2cn3cc[nH]c(=O)c3n2)cc1` [Substanz B, 2-(4-Methoxy-phenyl)-7H-imidazo[1,2-a]pyrazin-8-on] yielded a change in vivo at 1 mg/kg of 45%. For `COc1ccc(-c2cn3c(=O)[nH]c(=O)[nH]c3n2)cc1` [Substanz C, 7-(4-Methoxy-phenyl)-1H,3H-imidazo[1,2-a][1.3.5]triazin-2,4-dion], the change in vivo at 1 mg/kg was 86%. `COc1cc(S(=O)(=O)N(C)C)ccc1-c1cn2ccc(=O)[nH]c2n1` [Substanz F, 2-(2-Methoxy-4-dimethylaminosulfonyl-phenyl)-8H-imidazo-[1,2-a]pyrimidin-7-on] showed a change in vivo at 1 mg/kg of 47%. With `CN(C)S(=O)(=O)c1ccc(-c2cn3ccc(=O)[nH]c3n2)cc1` [Substanz A] the change in vivo at 1 mg/kg was 32%. `COc1cc(C#N)ccc1-c1cn2ccc(=O)[nH]c2n1` [Substanz E, 2-(2-Methoxy-4-cyano-phenyl)-8H-imidazo[1,2-a]pyrimidin-7-on] was tested, and the change in vivo at 1 mg/kg was 44%. With `COc1cc(OS(C)(=O)=O)ccc1-c1cn2ccc(=O)[nH]c2n1` [Substanz D, 2-(2-Methoxy-4-methylsulfonyloxy-phenyl)-8H-imidazo-[l,2-a]pyrimidin-7-on] the change in vivo at 1 mg/kg was 63%. `CNS(=O)(=O)c1ccc(-c2cn3ccc(=O)[nH]c3n2)c(OC)c1` [Substanz G, 2-(2-Methoxy-4-methylaminosulfonyl-phenyl)-8H-imidazo-[1,2-a]pyrimidin-7-on] showed a change in vivo at 1 mg/kg of 75%.
